In ChEMBL document CHEMBL1146870, “N-Tetrahydroquinolinyl, N-quinolinyl and N-isoquinolinyl biaryl carboxamides as antagonists of TRPV1” (Bioorg Med Chem Lett, 2006):

Columns and labels:
[1] = target: T1, Transient receptor potential cation channel subfamily V member 1 (Homo sapiens, UniProt Q8NER1); assay: Antagonist activity against human TRPV1 assessed as inhibition of capsaicin-induced calcium influx by FLIPR assay; type: functional
Homo sapiens = species on record: Homo sapiens; assay: Intrinsic clearance in human liver microsomes; type: ADME, Microsome
Cytochrome P450 2C19 = Cytochrome P450 2C19 (Homo sapiens, UniProt P33261); assay: Inhibition of cytochrome P450 2C19; type: ADME
Cytochrome P450 2C9 = Cytochrome P450 2C9 (Homo sapiens, UniProt P11712); assay: Inhibition of cytochrome P450 2C9; type: ADME
Cytochrome P450 2D6 = Cytochrome P450 2D6 (Homo sapiens, UniProt P10635); assay: Inhibition of cytochrome P450 2D6; type: ADME
Cytochrome P450 3A4 = Cytochrome P450 3A4 (Homo sapiens, UniProt P08684); assay: Inhibition of cytochrome P450 3A4; type: ADME
[2] = target: Transient receptor potential cation channel subfamily V member 1 (Cavia porcellus) (UniProt Q6R5A3)
Description: Antagonist activity against guinea pig TRPV1 assessed as inhibition of capsaicin-induced calcium influx by FLIPR assay

Cavia porcellus = assay: Inhibition of Freund's complete adjuvant-induced inflammatory hyperalgesia in guinea pig at 30 mg/kg, sc; type: functional; settings: route subcutaneous
Cytochrome P450 1A2 = target: T2, Cytochrome P450 1A2 (Homo sapiens, UniProt P05177); assay: Inhibition of cytochrome P450 1A2; type: ADME
T2 sequence (P05177 whole entry): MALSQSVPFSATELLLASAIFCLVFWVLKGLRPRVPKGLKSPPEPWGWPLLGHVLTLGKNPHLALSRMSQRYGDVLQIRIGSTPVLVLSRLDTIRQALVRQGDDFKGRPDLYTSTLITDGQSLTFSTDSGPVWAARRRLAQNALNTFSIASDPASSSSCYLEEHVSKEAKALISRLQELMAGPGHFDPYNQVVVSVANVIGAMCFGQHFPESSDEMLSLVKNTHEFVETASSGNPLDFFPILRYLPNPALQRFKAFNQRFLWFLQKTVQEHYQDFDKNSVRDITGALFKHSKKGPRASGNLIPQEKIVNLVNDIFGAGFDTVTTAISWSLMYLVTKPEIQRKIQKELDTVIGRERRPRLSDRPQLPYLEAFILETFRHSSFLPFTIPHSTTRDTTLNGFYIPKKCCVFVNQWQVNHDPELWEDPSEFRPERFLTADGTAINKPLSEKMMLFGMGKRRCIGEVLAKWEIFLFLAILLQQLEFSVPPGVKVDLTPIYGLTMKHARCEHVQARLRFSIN

[3] = target: T1, Transient receptor potential cation channel subfamily V member 1; assay: Antagonist activity against human TRPV1 assessed as inhibition of acid-induced calcium influx by FLIPR assay; type: functional
[4] = target: Transient receptor potential cation channel subfamily V member 1 (Rattus norvegicus, UniProt O35433); assay: Antagonist activity against rat TRPV1 assessed as inhibition of acid-induced calcium influx by FLIPR assay; type: functional
[5] = target: Transient receptor potential cation channel subfamily V member 1 (Rattus norvegicus) (UniProt O35433)
Transient receptor potential cation channel subfamily V member 1 (Rattus norvegicus), sequence (O35433 whole entry): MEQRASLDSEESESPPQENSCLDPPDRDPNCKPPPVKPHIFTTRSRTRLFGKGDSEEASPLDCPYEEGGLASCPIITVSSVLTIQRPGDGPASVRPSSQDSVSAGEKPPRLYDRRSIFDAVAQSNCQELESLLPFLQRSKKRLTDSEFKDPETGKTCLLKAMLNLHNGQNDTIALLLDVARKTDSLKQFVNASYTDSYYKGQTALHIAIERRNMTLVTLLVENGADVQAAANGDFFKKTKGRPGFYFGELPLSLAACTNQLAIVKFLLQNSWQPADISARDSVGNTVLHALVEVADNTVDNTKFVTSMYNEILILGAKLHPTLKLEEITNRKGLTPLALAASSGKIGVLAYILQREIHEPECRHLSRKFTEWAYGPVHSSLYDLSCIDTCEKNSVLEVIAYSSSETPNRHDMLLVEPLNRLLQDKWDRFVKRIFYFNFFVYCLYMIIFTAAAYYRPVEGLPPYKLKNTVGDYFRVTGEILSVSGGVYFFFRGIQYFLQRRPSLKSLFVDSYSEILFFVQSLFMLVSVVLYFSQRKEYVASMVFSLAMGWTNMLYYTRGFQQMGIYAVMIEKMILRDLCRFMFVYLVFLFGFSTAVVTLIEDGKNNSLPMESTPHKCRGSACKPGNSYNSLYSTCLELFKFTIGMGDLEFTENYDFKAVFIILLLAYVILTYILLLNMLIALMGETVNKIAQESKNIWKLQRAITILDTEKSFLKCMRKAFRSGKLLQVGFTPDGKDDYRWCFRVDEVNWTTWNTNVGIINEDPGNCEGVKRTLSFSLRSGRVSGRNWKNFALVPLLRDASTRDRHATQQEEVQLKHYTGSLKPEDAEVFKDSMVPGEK
Description: Antagonist activity against rat TRPV1 assessed as inhibition of capsaicin-induced calcium influx by FLIPR assay

T1 sequence (Q8NER1 whole entry): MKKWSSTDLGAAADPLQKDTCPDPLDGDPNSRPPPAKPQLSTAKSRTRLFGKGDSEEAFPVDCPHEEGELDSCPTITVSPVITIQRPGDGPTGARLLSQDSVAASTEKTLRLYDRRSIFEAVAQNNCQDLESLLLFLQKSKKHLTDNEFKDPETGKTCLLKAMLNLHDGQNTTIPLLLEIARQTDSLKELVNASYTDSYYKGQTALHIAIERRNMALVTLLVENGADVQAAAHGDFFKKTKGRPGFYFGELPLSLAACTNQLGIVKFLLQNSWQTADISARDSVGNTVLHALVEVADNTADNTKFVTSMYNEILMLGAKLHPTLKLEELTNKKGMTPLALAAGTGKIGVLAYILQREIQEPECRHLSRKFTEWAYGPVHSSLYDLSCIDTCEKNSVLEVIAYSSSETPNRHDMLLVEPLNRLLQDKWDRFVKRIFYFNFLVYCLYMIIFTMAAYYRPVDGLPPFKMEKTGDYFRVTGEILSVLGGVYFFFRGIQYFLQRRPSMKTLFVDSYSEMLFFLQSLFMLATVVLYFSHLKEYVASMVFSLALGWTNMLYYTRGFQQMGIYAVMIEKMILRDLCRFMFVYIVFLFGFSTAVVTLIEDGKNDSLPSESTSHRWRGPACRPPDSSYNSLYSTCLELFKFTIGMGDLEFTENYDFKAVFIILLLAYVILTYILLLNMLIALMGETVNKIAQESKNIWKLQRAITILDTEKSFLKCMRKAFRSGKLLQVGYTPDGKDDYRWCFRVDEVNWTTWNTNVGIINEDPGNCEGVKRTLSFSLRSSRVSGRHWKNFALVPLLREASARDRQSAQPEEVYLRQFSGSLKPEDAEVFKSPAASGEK
Transient receptor potential cation channel subfamily V member 1 (Rattus norvegicus, UniProt O35433), sequence (O35433 whole entry): as the sequence (O35433 whole entry) above
Cytochrome P450 2C19, sequence (P33261 whole entry): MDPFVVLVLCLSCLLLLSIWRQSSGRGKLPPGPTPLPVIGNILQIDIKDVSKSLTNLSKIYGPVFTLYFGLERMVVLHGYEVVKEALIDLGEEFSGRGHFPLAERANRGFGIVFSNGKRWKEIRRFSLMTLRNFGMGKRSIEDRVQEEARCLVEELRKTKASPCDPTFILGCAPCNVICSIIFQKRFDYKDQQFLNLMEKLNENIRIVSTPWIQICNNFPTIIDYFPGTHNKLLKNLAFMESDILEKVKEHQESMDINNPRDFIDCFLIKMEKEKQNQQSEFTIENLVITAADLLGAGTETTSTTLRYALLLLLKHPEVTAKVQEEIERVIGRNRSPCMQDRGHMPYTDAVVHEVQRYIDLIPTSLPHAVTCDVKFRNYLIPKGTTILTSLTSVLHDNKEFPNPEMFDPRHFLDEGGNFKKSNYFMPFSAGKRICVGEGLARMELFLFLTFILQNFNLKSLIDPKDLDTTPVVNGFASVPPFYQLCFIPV
Cytochrome P450 3A4, sequence (P08684 whole entry): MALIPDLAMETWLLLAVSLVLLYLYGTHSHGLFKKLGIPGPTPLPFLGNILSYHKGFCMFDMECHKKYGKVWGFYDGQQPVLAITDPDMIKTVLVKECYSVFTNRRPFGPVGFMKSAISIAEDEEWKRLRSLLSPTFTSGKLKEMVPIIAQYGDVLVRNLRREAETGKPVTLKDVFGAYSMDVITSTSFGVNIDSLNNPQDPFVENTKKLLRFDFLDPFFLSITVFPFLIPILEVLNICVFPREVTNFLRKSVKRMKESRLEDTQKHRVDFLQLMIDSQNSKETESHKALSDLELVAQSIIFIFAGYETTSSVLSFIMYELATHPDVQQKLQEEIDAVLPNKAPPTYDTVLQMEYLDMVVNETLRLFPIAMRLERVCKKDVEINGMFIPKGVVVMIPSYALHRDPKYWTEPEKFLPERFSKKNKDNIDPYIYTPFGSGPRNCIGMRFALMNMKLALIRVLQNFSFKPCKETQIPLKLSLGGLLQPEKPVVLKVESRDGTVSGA
Transient receptor potential cation channel subfamily V member 1 (Cavia porcellus), sequence (Q6R5A3 whole entry): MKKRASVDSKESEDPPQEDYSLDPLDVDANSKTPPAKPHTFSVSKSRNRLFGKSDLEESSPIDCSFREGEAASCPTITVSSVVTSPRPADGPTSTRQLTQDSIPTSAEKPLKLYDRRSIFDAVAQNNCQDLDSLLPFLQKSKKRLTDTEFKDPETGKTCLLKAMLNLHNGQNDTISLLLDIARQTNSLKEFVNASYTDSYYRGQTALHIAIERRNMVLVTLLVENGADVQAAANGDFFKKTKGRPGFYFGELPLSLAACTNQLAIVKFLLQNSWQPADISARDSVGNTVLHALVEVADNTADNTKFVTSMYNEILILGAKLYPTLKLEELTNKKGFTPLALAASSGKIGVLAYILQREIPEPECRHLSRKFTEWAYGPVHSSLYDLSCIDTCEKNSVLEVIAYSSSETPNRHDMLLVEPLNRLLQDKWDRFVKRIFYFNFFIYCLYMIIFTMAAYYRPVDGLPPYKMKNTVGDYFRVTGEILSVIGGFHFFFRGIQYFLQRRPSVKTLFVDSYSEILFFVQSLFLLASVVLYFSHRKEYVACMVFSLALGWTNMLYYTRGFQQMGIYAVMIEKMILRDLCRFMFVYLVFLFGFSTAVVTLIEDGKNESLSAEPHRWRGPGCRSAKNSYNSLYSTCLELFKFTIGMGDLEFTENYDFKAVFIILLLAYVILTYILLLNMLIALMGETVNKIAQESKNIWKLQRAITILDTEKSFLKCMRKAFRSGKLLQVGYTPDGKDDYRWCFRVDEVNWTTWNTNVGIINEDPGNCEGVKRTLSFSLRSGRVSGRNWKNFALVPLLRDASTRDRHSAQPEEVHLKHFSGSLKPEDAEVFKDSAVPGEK
Cytochrome P450 2D6, sequence (P10635 whole entry): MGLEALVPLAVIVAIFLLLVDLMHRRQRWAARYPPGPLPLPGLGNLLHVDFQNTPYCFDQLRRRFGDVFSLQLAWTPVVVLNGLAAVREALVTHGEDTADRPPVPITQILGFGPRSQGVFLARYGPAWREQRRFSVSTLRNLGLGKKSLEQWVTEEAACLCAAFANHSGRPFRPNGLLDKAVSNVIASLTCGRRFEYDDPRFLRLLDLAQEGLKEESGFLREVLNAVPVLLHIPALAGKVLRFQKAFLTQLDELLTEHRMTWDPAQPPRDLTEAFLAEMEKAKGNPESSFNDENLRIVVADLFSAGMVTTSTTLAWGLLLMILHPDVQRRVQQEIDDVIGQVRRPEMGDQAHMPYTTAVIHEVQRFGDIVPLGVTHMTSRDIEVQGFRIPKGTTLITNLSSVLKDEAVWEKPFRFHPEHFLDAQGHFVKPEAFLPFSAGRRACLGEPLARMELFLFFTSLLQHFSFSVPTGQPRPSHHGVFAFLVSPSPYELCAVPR
Cytochrome P450 2C9, sequence (P11712 whole entry): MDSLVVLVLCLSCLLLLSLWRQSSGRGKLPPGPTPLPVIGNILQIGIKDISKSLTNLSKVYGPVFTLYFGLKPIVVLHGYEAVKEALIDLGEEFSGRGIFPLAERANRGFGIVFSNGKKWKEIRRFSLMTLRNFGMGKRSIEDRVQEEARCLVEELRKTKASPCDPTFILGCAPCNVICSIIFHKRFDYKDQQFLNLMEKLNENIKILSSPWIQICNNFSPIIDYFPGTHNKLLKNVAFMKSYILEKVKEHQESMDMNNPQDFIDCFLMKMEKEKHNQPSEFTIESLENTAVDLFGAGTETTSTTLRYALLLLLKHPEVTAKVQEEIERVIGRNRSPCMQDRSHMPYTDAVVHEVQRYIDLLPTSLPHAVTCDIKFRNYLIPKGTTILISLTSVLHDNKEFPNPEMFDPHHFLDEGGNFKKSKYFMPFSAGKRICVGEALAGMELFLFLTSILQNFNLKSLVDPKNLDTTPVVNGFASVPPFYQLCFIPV

Structure (SMILES) | pKb [1] | other results
O=C(Nc1ccc2ccncc2c1)c1ccc(-c2ccccc2)cc1 | 7.4 | –
CC(=O)N1CCCc2ccc(NC(=O)c3ccc(-c4ccccc4)cc3)cc21 | 7.2 | –
O=C(Nc1ccc2cnccc2c1)c1ccc(-c2ccccc2)cc1 | 7.7 | –
O=C(Nc1ccc2cccnc2c1)c1ccc(-c2ccccc2)cc1 | 9.4 | –
CNS(=O)(=O)c1cccc(-c2ccc(C(=O)Nc3ccc4c(c3)N(C)CCC4)cc2)c1 | 7 | –
Cc1cc(C(=O)Nc2ccc3c(c2)N(C)CCC3)ccc1-c1ccccc1 | 7.4 | –
O=C(Nc1ccc2ncccc2c1)c1ccc(-c2ccccc2)cc1 | 6.9 | –
CN1CCCc2ccc(NC(=O)c3cnc(-c4ccccc4)cn3)cc21 | < 6.8 | –
COc1cc(-c2ccccc2)ccc1C(=O)Nc1ccc2c(c1)N(C)CCC2 | < 6.8 | –
Cc1ccc2ccc(NC(=O)c3ccc(-c4ccccc4)cc3)cc2n1 | 8 | –
CN1CCCc2ccc(NC(=O)c3ccc(-c4ccccc4)cc3Cl)cc21 | 7.1 | –
O=C(Nc1ccc2c(c1)NCCC2)c1ccc(-c2ccccc2)cc1 | 7.7 | –
CN1CCCc2ccc(NC(=O)c3ccc(-c4cncnc4)cc3)cc21 | 6.9 | –
CN1CCCc2ccc(NC(=O)c3cccc(-c4ccccc4)c3)cc21 | < 6.8 | –
CN1CCCc2ccc(NC(=O)c3ccc(-n4cccn4)cc3)cc21 | 6.9 | –
O=C(Nc1cccc2ncccc12)c1ccc(-c2ccccc2)cc1 | < 6.5 | –
CN1CCCc2cc(NC(=O)c3ccc(-c4ccccc4)cc3)ccc21 | 7.1 | –
COCC(=O)N1CCCc2ccc(NC(=O)c3ccc(-c4ccccc4)cc3)cc21 | 7.2 | –

Structure (SMILES) | pKb [1] | other results
CN1CCCc2cccc(NC(=O)c3ccc(-c4ccccc4)cc3)c21 | < 6.3 | –
CN(C)CCN1CCCc2ccc(NC(=O)c3ccc(-c4ccccc4)cc3)cc21 | 7.4 | –
CN1CCCc2ccc(NC(=O)c3ccc(-c4ccccc4)nc3)cc21 | 7.8 | CL (Homo sapiens): 4 mL/min/g
O=C(Nc1cccc2cnccc12)c1ccc(-c2ccccc2)cc1 | 7.7 | –
CN1CCCc2ccc(NC(=O)c3ccc(-c4ccccc4)s3)cc21 | 7 | –
CN1CCCc2ccc(NC(=O)c3ccc(-c4ccsc4)cc3)cc21 | 7.8 | –
CN(C)C(=O)c1ccc(-c2ccc(C(=O)Nc3ccc4c(c3)N(C)CCC4)cc2)cc1 | 7.1 | –
CN1CCCc2ccc(NC(=O)c3ccc(-c4ccccc4)cc3)cc21 | 7.5 | CL (Homo sapiens): 7 mL/min/g
O=C(Nc1ccc2cccnc2c1)c1ccc(-c2ccccc2)nc1 | – | IC50 (Cytochrome P450 2C19): > 18 µM; IC50 (Cytochrome P450 2C9): > 18 µM; IC50 (Cytochrome P450 2D6): > 18 µM; IC50 (Cytochrome P450 3A4): > 18 µM; pKb [2]: 8.4; CL (Homo sapiens): < 5 mL/min/g; inhibition in vivo at 30 mg/kg (Cavia porcellus): 32%; IC50 (Cytochrome P450 1A2): > 18 µM; IC50 [3]: 0.00794 µM; IC50 [4]: 0.0251 µM; pKb [5]: 8.4
CC(=O)NCCN1CCCc2ccc(NC(=O)c3ccc(-c4ccccc4)cc3)cc21 | 6.9 | –
CN1CCCc2ccc(NC(=O)c3ccccc3-c3ccccc3)cc21 | < 6.6 | –
O=C(Nc1cccc2cccnc12)c1ccc(-c2ccccc2)cc1 | < 6.5 | –
CN1CCCc2c(NC(=O)c3ccc(-c4ccccc4)cc3)cccc21 | < 6.5 | –
COCCN1CCCc2ccc(NC(=O)c3ccc(-c4ccccc4)cc3)cc21 | 7.3 | –
CN1CCCc2ccc(NC(=O)c3ccc(-c4cnccn4)cc3)cc21 | 7.1 | –
O=C(Nc1ccc2ccc(O)nc2c1)c1ccc(-c2ccccc2)cc1 | 8.5 | –
CC(=O)c1cccc(-c2ccc(C(=O)Nc3ccc4c(c3)N(C)CCC4)cc2)c1 | 7 | –
CN1CCCc2ccc(NC(=O)c3ccc(-c4cccs4)cc3)cc21 | 7.6 | –
